From patent US20070099869A1, “Association product of α-glycosyl α,α-trehalose with ionic metal compound” (KABUSHIKI KAISHA HAYASHIBARA SEIBUTSU KAGAKU KENKYUJO, priority 2003, published 2007)
Blank lines part the entries; values can stand above or below the molecule they belong to.

Experiments:
[1] = Inhibition of deterioration (browning) of L-ascorbic acid in the presence of metal ion; assay type: physicochemical; details: 50° C., sealed vial
Procedure: L-Ascorbic acid deteriorates rapidly by the oxidative degradation in the presence of iron and copper ions and causes browning. The effects of α-maltosyl α,α-trehalose on the phenomenon were investigated as follows. Five kinds of aqueous solutions, having respective compositions described in Table 8, were prepared. Aqueous solutions of L-ascorbic acid alone or L-ascorbic acid and metal ion compounds were used as controls. The test solutions were prepared by adding α-maltosyl α,α-trehalose to the control solutions. Ten milliliters of each of these test and control solutions were placed in different 20 ml-vials and sealed. The vials were preserved at 50° C. […] After the preservation, the degree of coloring of each solution was measured. In the case of the control solutions containing L-ascorbic acid alone, the degrees of coloring were measured at the preservation periods of 40 hours and 96 hours. The absorbance at 420 nm (within the visible light range) of each sample was measured for the degree of coloring.

[2] = Hygroscopicity (deliquescence) test at relative humidity 52.8%; assay type: physicochemical
Procedure: In order to compare the hygroscopicity (deliquescent property) of an associated complex of α-maltosyl α,α-trehalose and calcium chloride with that of a control, calcium chloride which is known to have a high deliquescent property, the following hygroscopicity test was carried out. The crystalline associated complexes of α-maltosyl α,α-trehalose and calcium chloride, prepared according to the method in Experiment 2-1 and calcium chloride dehydrate, were used as test samples. The moisture content (weight of moisture per one gram of the sample) of each sample was measured by conventional drying loss method. […] The amount of moisture per one gram of each sample after 1 to 7 days preservation was calculated based on the assumption that the increased amount measured to that of 0 day preservation was the amount of moisture absorbed by each sample.

[3] = Inhibition of formation of calcium phosphate precipitate (solubilized calcium); assay type: physicochemical; details: calcium chloride solution with saccharide mixed with phosphate solution pH 6.8, 37° C., three hours, supernatant, n=3
Procedure: When phosphate ion is added to a calcium chloride aqueous solution, calcium phosphate, an insoluble salt, is formed from calcium ion and phosphate ion and then precipitated. Effects of α-maltosyl α,α-trehalose and other saccharides on the phenomenon were investigated as follows. A calcium chloride aqueous solution was prepared by the steps of adding 3.68 grams of calcium chloride dihydrate to deionized water to dissolve therein and adding deionized water to the solution to give a total volume of 200 ml. α-Maltosyl α,α-trehalose, prepared by the method in Experiment 1, maltotetraose, and anhydrous crystalline sucrose were used as saccharides for the test. […]
Twenty-six grams, d.s.b., of either of the saccharides for the test were added to five milliliters of the above calcium chloride solution and dissolved by adding additional deionized water. […] The calcium concentration (the solubilized calcium concentration) of each supernatant was measured using “ZEEMAN 5100”, an atomic adsorption-photometer commercialized by Perkin-Elmar Japan Co. Ltd., Kanagawa, Japan. […]
The above procedure was carried out for individual each sample (three kinds of saccharides and control) for three times and the average value of the solubilized calcium concentration was calculated.

[4] = Procedure: The changes of solubility in water of metal ion compounds were examined under coexistence of α-maltosyl α,α-trehalose and metal ion compounds. α-Maltosyl α,α-trehalose prepared by the method in Experiment 1 was used for the tests. […] Solutions prepared by dissolving the same amount of metal ion compounds only were prepared as controls. After dissolving the contents completely, all the beakers were allowed to stand at room temperature (25° C.) for 24 hours. Successively, precipitation of crystals was judged by macroscopic observation. In the case of precipitating crystals, the formed crystals were collected and analyzed for components by the conventional method.

Degree of coloring (Abs. at 420 nm), preserved for 40 hrs ([1]; 40 hrs): 0.012 | Degree of coloring (Abs. at 420 nm), preserved for 96 hrs ([1]; 96 hrs): 0.166
SMILES: O=C1O[C@H]([C@@H](O)CO)C(O)=C1O [14.8 mM AsA, L-ascorbic acid]

SMILES: O.O.[Ca+2].[Cl-].[Cl-] [CaCl2•2H2O, calcium chloride dihydrate]
Moisture content/g-sample, 1 day ([2]; 25° C., relative humidity 52.8%, 1 day): 0.319 g | Moisture content/g-sample, 2 days ([2]; 25° C., relative humidity 52.8%, 2 days): 0.359 g | Moisture content/g-sample, 3 days ([2]; 25° C., relative humidity 52.8%, 3 days): 0.405 g | Moisture content/g-sample, 7 days ([2]; 25° C., relative humidity 52.8%, 7 days): 0.430 g | Moisture content/g-sample, 0 day ([2]; before preservation, drying loss method): 0.245 g

Concentration of solubilized calcium (average ± standard deviation) [3]: 6910 ± 830 ng/mL
SMILES: OC[C@H]1O[C@H](O[C@H]2[C@H](O)[C@@H](O)[C@@H](O[C@H]3[C@H](O)[C@@H](O)[C@@H](O[C@H]4[C@H](O)[C@@H](O)C(O)O[C@@H]4CO)O[C@@H]3CO)O[C@@H]2CO)[C@H](O)[C@@H](O)[C@@H]1O (stereo partly shown) [Maltotetraose, maltotetraose]

SMILES: O.O.O.O.[Cl][Mn][Cl] [Manganese chloride, manganese chloride tetrahydrate]
Solubility in water in the presence of α-maltosyl α,α-trehalose [4]: remarkably improved

Precipitation of crystal, in the absence of α-maltosyl α,α-trehalose ([4]; 0.1 mole metal ion compound only in 30 g water, dissolved by heating, 25° C. for 24 hours, macroscopic observation): Precipitated
SMILES: O.O.O.O.O.O.[Cl-].[Cl-].[Sr+2] [Strontium chloride, Strontium chloride hexahydrate]
